Here are results for eight molecules from PubChem BioAssay (NCI).

Each structure is given as a SMILES string.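 A five-concentration, 48-hour dose response in 96-well plates underlies each endpoint, interpolated linearly between surrounding concentrations. TGI is the concentration that stops growth completely.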

Among the test systems are CAKI-1 renal; HOP-92 NSCLC; OVCAR-8 ovarian; SNB-19 CNS; SK-MEL-5 melanoma; HOP-62 NSCLC; BT-549 breast; U251 CNS; MOLT-4 leukemia; SF-268 CNS; MALME-3M melanoma; SK-MEL-28 melanoma; IGROV1 ovarian; SW-620 colon; RPMI-8226 leukemia; SK-OV-3 ovarian; KM12 colon; NCI-H226 lung; HL-60(TB) leukemia.
Common to all, as to assay: NCI-60 cell line screen, 48 h

Regarding `CC(C)=CCC/C(C)=C/CC/C(C)=C/CC(CO)N(C)CC/C=C(\C)CCC=C(C)C` (stereo unspecified), the TGI in the test on CAKI-1 renal came to 19.2 µM; with HOP-92 NSCLC it was 8.85 µM; in the test on OVCAR-8 ovarian, 20.2 µM; in the test with SNB-19 CNS, 21.5 µM; in the test on SK-MEL-5 melanoma, 23.2 µM; in the test on HOP-62 NSCLC, 15 µM. Further, the TGI with BT-549 breast was 27.5 µM; in the test with U251 CNS it was 14.5 µM; in the test on MOLT-4 leukemia, 6.69 µM; in the test with SF-268 CNS, 26.7 µM; in the test with MALME-3M melanoma, 8.75 µM; in the test on SK-MEL-28 melanoma, 14.4 µM. The TGI turned out to be 16 µM in the test on IGROV1 ovarian; 13.7 µM in the test with SW-620 colon; 10.1 µM with RPMI-8226 leukemia; 28.9 µM in the test on SK-OV-3 ovarian; 14.5 µM in the test with KM12 colon; 28.4 µM in the test on NCI-H226 lung.

Consider `CCOc1nnnc2nc[nH]c12`, for which the TGI with CAKI-1 renal, with OVCAR-8 ovarian, with SK-MEL-5 melanoma, with HOP-62 NSCLC, in the test on BT-549 breast and in the test with U251 CNS was greater than 100 µM each time. Besides, the TGI in the test on MOLT-4 leukemia, in the test with SF-268 CNS, with MALME-3M melanoma, in the test on SK-MEL-28 melanoma, in the test on IGROV1 ovarian and in the test on HL-60(TB) leukemia was greater than 100 µM each time. For the same molecule, the TGI in the test with SW-620 colon, in the test on RPMI-8226 leukemia, in the test on SK-OV-3 ovarian, in the test on KM12 colon and with NCI-H226 lung was greater than 100 µM throughout.

On to `COC(=O)c1nsc(OC)c1Cl`, for which the TGI in the test on CAKI-1 renal, in the test on OVCAR-8 ovarian, in the test with SNB-19 CNS, in the test on SK-MEL-5 melanoma, with HOP-62 NSCLC and in the test with BT-549 breast was greater than 100 µM in each case. The TGI in the test with U251 CNS, in the test on MOLT-4 leukemia, in the test on SF-268 CNS, with MALME-3M melanoma, in the test on SK-MEL-28 melanoma and in the test with IGROV1 ovarian was greater than 100 µM each time. The TGI in the test on HL-60(TB) leukemia, in the test with SW-620 colon, with RPMI-8226 leukemia, with SK-OV-3 ovarian, in the test with KM12 colon and in the test with NCI-H226 lung was greater than 100 µM each time.

Regarding `CC(C)(C)OC/C=C(/CO)[C@@H]1C=C[C@H](O)C1`, the TGI in the test on CAKI-1 renal, in the test on SNB-19 CNS, with HOP-62 NSCLC, in the test on BT-549 breast, in the test with U251 CNS and in the test on MOLT-4 leukemia was greater than 100 µM in each case. Besides, the TGI with SF-268 CNS, in the test on MALME-3M melanoma, with SK-MEL-28 melanoma, with SW-620 colon, in the test on RPMI-8226 leukemia and in the test on SK-OV-3 ovarian was greater than 100 µM throughout. The TGI in the test on KM12 colon and with NCI-H226 lung was greater than 100 µM each time.

On to `CNCCCn1c2ccccc2c2c3c(c(-c4ccsc4)cc21)C(=O)NC3=O`, for which the TGI came out at 2.44 µM in the test with CAKI-1 renal; 2.22 µM with HOP-92 NSCLC; 2.07 µM in the test with OVCAR-8 ovarian; 3.06 µM with SNB-19 CNS; 2.16 µM with SK-MEL-5 melanoma; 2.24 µM in the test with HOP-62 NSCLC. The TGI with BT-549 breast is 13.7 µM; with U251 CNS it was 3.71 µM; with MOLT-4 leukemia, greater than 100 µM; with SF-268 CNS, 4 µM; in the test with SK-MEL-28 melanoma, 3.36 µM; in the test with IGROV1 ovarian, 2.4 µM. The TGI with HL-60(TB) leukemia came to 4 µM; in the test with SW-620 colon, 2.92 µM; with SK-OV-3 ovarian it was 2.63 µM; in the test with NCI-H226 lung it was 23.6 µM.

In the case of `CC(C)C(C/C=C1\CC(CO)(COC(=O)C(C)(C)C)OC1=O)C(C)C` (stereo unspecified), the TGI in the test with CAKI-1 renal was determined as 21.7 µM; with HOP-92 NSCLC, 25 µM; with OVCAR-8 ovarian it was 31.1 µM; with SNB-19 CNS it was 26 µM; in the test on SK-MEL-5 melanoma, 20 µM; with HOP-62 NSCLC, 20.4 µM. Besides, the TGI is 24.5 µM in the test on BT-549 breast; 29.8 µM in the test with U251 CNS; 25 µM with MOLT-4 leukemia; 27.7 µM with SF-268 CNS; 23.5 µM in the test on MALME-3M melanoma; 26.4 µM with SK-MEL-28 melanoma. Besides, the TGI in the test with IGROV1 ovarian came to 29.4 µM; in the test with SW-620 colon it was 17.1 µM; with SK-OV-3 ovarian, 29 µM; in the test with KM12 colon, 28.2 µM; with NCI-H226 lung, 19.8 µM.

With `O=C(NNC(=O)c1ccccc1O)c1cccc(Br)c1`, the TGI in the test on CAKI-1 renal, in the test with OVCAR-8 ovarian, with SNB-19 CNS, with SK-MEL-5 melanoma, in the test with HOP-62 NSCLC and in the test on BT-549 breast was greater than 100 µM throughout. Moreover, the TGI is greater than 100 µM with U251 CNS; greater than 81 µM with MOLT-4 leukemia; greater than 100 µM in the test on SF-268 CNS; greater than 100 µM in the test on MALME-3M melanoma; greater than 100 µM in the test on SK-MEL-28 melanoma; greater than 100 µM in the test with IGROV1 ovarian. Also, the TGI in the test on HL-60(TB) leukemia, with SW-620 colon, in the test with RPMI-8226 leukemia, in the test with SK-OV-3 ovarian, in the test with KM12 colon and with NCI-H226 lung was greater than 100 µM in each case.

As for `CC(=O)N(C)CCc1c[nH]c2ccccc12`, the TGI with CAKI-1 renal, with OVCAR-8 ovarian, with SNB-19 CNS, in the test on SK-MEL-5 melanoma, with HOP-62 NSCLC and in the test with BT-549 breast was greater than 100 µM each time. The TGI with U251 CNS, in the test on MOLT-4 leukemia, with SF-268 CNS, with MALME-3M melanoma, with SK-MEL-28 melanoma and with IGROV1 ovarian was greater than 100 µM in each case. For the same molecule, the TGI in the test with HL-60(TB) leukemia, with SW-620 colon, in the test with RPMI-8226 leukemia, with SK-OV-3 ovarian, in the test on KM12 colon and in the test on NCI-H226 lung was greater than 100 µM in each case.
